# Data reported in patent publication US20240327506A1, “METHODS AND COMPOSITION FOR THE SELECTIVE ENHANCEMENT OF ADOPTIVE CELL THERAPY” (MaineHealth, priority 2023, published 2024).
# Experiments:
# Jurkat T-cells = assay: Transwell migration of Jurkat T-cells through collagen type-IV; format: cell-based, human; conditions: peptide, SDF-1 in lower chamber
# Procedure: FIGS. 4A-4H. […] Briefly, membranes from transwell migration chambers were coated with either native collagen type-IV or denatured collagen type-IV. T-cell variants were incubated with non-specific control peptide CP, or the RGDKGE (SEQ ID NO: 1)-containing collagen peptide (P2) and seed on the coated transwell membranes. T-cells were allowed to migrate in the presence or absence of SDF-1 added to the lower chamber for approximately 1.5 hours. Cell migration was quantified by counting the number of crystal violet stained cells that had migrated through to the underside of the coated membrane. FIG. 4A. Jurkat T-cell migration through denatured collagen type-IV in the presence of non-specific control peptide CP or RGDKGE (SEQ ID NO: 1)-containing collagen peptide P2 with SDF-1. FIG. 4B. Jurkat T-cell migration through native collagen type-IV in the presence of non-specific control peptide CP or RGDKGE (SEQ ID NO: 1)-containing collagen peptide P2 with SDF-1. FIG. 4C. Cem/C1 T-cell migration through denatured collagen type-IV in the presence of non-specific control peptide CP or RGDKGE (SEQ ID NO: 1)-containing collagen peptide P2 with SDF-1. FIG. 4D. […]
# FIGS. 5A-5F. […] Cell migration was quantified by counting the number of crystal violet stained cells that had migrated through to the underside of the coated membrane. […]
# [1] = system: angiogenesis and inflammation; conditions: peptide; cited from earlier work
# Hut78 T-cells = assay: Transwell migration of Hut78 T-cells through collagen type-IV; format: cell-based, human; conditions: peptide, absence of SDF-1
# Procedure: FIGS. 4A-4H. […] Briefly, membranes from transwell migration chambers were coated with either native collagen type-IV or denatured collagen type-IV. T-cell variants were incubated with non-specific control peptide CP, or the RGDKGE (SEQ ID NO: 1)-containing collagen peptide (P2) and seed on the coated transwell membranes. T-cells were allowed to migrate in the presence or absence of SDF-1 added to the lower chamber for approximately 1.5 hours. Cell migration was quantified by counting the number of crystal violet stained cells that had migrated through to the underside of the coated membrane. FIG. 4A. Jurkat T-cell migration through denatured collagen type-IV in the presence of non-specific control peptide CP or RGDKGE (SEQ ID NO: 1)-containing collagen peptide P2 with SDF-1. FIG. 4B. Jurkat T-cell migration through native collagen type-IV in the presence of non-specific control peptide CP or RGDKGE (SEQ ID NO: 1)-containing collagen peptide P2 with SDF-1. FIG. 4C. Cem/C1 T-cell migration through denatured collagen type-IV in the presence of non-specific control peptide CP or RGDKGE (SEQ ID NO: 1)-containing collagen peptide P2 with SDF-1. FIG. 4D. Cem/C1 T-cell migration through native collagen type-IV in the presence of non-specific control peptide CP or RGDKGE (SEQ ID NO: 1)-containing collagen peptide P2. FIG. 4E. Hut78 T-cell migration through denatured collagen type-IV in the presence of non-specific control peptide CP or RGDKGE (SEQ ID NO: 1)-containing collagen peptide P2. FIG. 4F. Hut78 T-cell migration through native collagen type-IV in the presence of non-specific control peptide CP or RGDKGE (SEQ ID NO: 1)-containing collagen peptide P2. FIG. 4G Primary CD8+ T-cell migration through denatured collagen type-IV in the presence of non-specific control peptide CP or RGDKGE (SEQ ID NO: 1)-containing collagen peptide P2 with SDF-1. FIG. 4H. CD8+ T-cell migration through native collagen type-IV in the presence of non-specific control peptide CP or RGDKGE (SEQ ID NO: 1)-containing collagen peptide P2 with SDF-1. Data bars indicate the mean cell migration±S.E. *P<0.05.
# Given our new observations, and the fact that many tumor types as well as immunosuppressive macrophages can secrete the small soluble RGDKGE (SEQ ID NO: 1) collagen peptide, we next sought to determine whether this soluble collagen peptide could impact T-cell migration through denatured collagen type-IV, a critical ECM component shown to be selectively enriched in tumor vessels. Briefly, membranes from transwell migration chambers were coated with either native collagen type-IV or denatured collagen type-IV. […] Cell migration was quantified following staining cells with crystal violet (6,8). […]
# αvβ3 = αvβ3 (Homo sapiens, UniProt P05106+P06756); conditions: cited from earlier work
# Chain of αvβ3 (P06756 31-889 limits assumed): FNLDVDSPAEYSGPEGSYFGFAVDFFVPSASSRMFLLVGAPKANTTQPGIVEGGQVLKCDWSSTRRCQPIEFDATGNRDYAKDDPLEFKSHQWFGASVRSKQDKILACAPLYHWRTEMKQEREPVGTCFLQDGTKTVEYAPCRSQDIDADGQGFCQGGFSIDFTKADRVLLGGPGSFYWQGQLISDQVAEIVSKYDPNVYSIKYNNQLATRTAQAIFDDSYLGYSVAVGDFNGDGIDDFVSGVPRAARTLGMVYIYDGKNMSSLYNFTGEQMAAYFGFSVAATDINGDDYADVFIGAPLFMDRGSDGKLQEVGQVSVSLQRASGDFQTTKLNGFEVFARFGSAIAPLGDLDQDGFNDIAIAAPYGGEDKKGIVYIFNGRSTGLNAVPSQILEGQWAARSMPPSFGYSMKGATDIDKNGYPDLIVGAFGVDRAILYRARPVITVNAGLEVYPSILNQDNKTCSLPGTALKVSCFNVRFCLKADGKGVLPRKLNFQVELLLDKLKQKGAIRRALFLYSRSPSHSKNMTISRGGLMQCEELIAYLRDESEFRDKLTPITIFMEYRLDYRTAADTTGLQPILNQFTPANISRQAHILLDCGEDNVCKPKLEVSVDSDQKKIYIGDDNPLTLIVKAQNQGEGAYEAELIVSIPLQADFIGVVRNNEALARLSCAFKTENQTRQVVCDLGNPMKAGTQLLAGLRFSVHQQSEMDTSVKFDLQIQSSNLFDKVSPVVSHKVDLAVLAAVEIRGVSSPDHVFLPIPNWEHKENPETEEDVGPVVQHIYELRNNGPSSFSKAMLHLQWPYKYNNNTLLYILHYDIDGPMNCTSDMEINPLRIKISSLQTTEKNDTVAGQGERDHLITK
# Chain of αvβ3 (P06756 891-1048 partner limits assumed): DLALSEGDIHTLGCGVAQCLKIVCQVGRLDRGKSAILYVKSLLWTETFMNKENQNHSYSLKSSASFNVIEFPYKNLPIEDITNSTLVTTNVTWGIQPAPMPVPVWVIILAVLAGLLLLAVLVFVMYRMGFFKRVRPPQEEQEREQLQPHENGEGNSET
# Chain of αvβ3 (P05106 27-788): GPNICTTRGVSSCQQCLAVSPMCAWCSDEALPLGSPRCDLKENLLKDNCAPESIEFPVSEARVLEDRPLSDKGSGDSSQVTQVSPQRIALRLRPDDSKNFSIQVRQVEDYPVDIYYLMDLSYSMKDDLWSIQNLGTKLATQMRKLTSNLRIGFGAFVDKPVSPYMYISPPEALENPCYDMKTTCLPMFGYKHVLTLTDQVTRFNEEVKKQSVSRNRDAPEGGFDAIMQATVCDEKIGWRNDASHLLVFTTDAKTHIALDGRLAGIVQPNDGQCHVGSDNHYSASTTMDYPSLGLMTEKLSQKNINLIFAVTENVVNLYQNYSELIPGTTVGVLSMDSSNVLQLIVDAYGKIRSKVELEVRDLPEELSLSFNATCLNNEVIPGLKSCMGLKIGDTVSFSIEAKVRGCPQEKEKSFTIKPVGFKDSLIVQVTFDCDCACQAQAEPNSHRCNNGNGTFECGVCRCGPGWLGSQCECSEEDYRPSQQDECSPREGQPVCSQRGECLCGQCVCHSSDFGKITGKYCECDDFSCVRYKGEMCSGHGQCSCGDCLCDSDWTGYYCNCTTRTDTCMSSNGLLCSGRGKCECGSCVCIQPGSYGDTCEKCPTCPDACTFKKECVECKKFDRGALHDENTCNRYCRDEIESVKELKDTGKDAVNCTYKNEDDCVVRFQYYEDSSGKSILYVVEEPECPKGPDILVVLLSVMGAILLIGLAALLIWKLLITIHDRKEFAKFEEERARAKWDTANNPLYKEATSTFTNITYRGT
sequence,measurement,setting,value
"QGPRGDKGE (CQGPRGDKGEC; Synthetic: Synthetic collagen RGD containing peptide P-2) [Peptide P2, synthetic version of the soluble RGDKGE-containing collagen peptide]",Jurkat T-cell migration,Jurkat T-cells; denatured collagen type-IV,selectively inhibited
same,Jurkat T-cell migration,Jurkat T-cells; native collagen type-IV,"neither the soluble RGDKGE (SEQ ID NO: 1) collagen peptide P2, nor the non-specific control peptide had any significant effect"
same,induction of angiogenesis and inflammation in vivo,[1],significantly induced angiogenesis and inflammation
same,Hut78 T-cell migration,Hut78 T-cells; denatured collagen type-IV,selectively inhibited
same,Hut78 T-cell migration,Hut78 T-cells; native collagen type-IV,"neither the soluble RGDKGE (SEQ ID NO: 1) collagen peptide P2, nor the non-specific control peptide had any significant effect"
same,binding to αvβ3,αvβ3,bound
